Here are results for 3 compounds from patent publication US12673915B2, “Precursor compound of hexahydro-beta-acid component compound, feed composition and use thereof” (WISORIG TECHNOLOGIES PTE. LIMITED, priority 2020, dated 2026).

For one series, the system named is yellow broilers. Briefly: Effect on the production performance of broilers (30-day feeding trial). Format: in vivo. Particulars: for ADFI (average daily feed intake) / ADG (average daily weight gain) / FCR (feed conversion ratio): 30 days, broilers; for effects on the production performance of broilers compared with hexahydro-colupulone (in words): in vivo. An excerpt: Single-factor was used to conduct the trial. 540 1-day-old yellow broilers with a similar average body weight of 50 g were randomly divided into 6 groups, with 6 replicates per group, equal amount of males and females and 15 yellow broilers per replicate. The chicken house and tools were sterilized before the trial. During the trial, the broilers were kept in separate regions in the same chicken house under the same feeding and management conditions. During the trial, each test group was fed with basal formula feed consisting of corn and soybean and not fed with other antioxidants or growth enhancers. The groups were known as control group (group 1) and test groups 2 to 6, wherein the control group was fed with basal formula feed only, while the test groups 2 to 6 were fed with basal formula feeds respectively mixed with hexahydro-colupulone, hexahydro-colupulone mono-acetate, or hexahydro-colupulone mono-butyrate, as shown in Table 5.
The trial lasted for 30 days. The broilers were given free hand with feed and water and were fed twice a day. To calculate the average daily feed intake (ADFI, g/d per broiler), the average daily weigh gain (ADG, g/d per broiler) and the feed conversion ratio (FCR), the 31 days old broilers (12 hours without feed but water) of each replication as one unit were weighed, and the amount of the feed consumed thereby was counted. Feed conversion ratio (FCR)=average daily feed intake/average daily weight gain

The nature of series [1]: Thermal stability testing at 60° C. of ingredient and 1% premix (HPLC). The class given is physicochemical. Here is the method:
Preparation of a sample of 1% premix of an ingredient: 1 g of an ingredient was respectively weighed out and evenly mixed with 99 g of corncob meal in a mixer to give a sample of 1% premix of an ingredient for testing.
Thermal stability testing at 60° C.: The samples of an ingredient and 1% premix thereof were respectively spread in petri dishes to form thin layers of <5 mm, and kept at 60° C. Two replications for a sample were taken in parallel on day 5 and day 10 for HPLC analysis.
25.0 mg of an ingredient was accurately weighed out and dissolved in an appropriate amount of methanol by ultrasonication. The solution was then transferred to a volumetric flask and diluted to 25 mL with methanol to give a stock solution. The samples from the stock solution were diluted with methanol respectively to a concentration of 100 ppm, 500 ppm, and 1000 ppm of work solution, and then the working solutions were filtered by 0.22 μm organic membranes. Between the concentration of a sample and the response value of HPLC peak area thereof, the linearity was adjusted and detected to give a standard curve.
2.3: Preparation of Sample Solution 25.0 mg of an ingredient and 2.0000 g of a sample of 1% premix thereof were respectively accurately weighed out, and dissolved in 25 mL of methanol by ultrasonication for 10 minutes. The resulting solutions were filtered by organic membranes and then analyzed by HPLC. 2.4: Testing Conditions for HPLC • Column: Symmetry Cis column (Waters; 250 mm*4.6 mm, 5 μm). • Mobile phase: 0.02% phosphoric acid:methanol=5:95 (v:v). • Wavelength: 235 nm. • Temperature of the Column: 25° C. • Injection volume: 10 μL. • Flow rate: 1 mL/min. 3: Results

Series [2] deals with Duroc×Landrace×Yorkshire cross-bred bacon-type piglets. Briefly: Effect on the production performance of hogs (14-day feeding trial). The class given is in vivo. Conditions: 14 days, piglets. The text has this: 480 67-day-old Duroc×Landrace×Yorkshire cross-bred bacon-type piglets with similar body weight, were randomly divided into 16 groups, with 3 replications per group, 10 piglets per replication and equal amounts of males and females. The pig pen and tools were sterilized before the trial. In the trial, the piglets were kept in separate regions in the same pig pen under the same feeding and management conditions, were given a free hand with the feed and the water, and were fed twice a day. The groups were known as control group (group 1) and test groups 2 to 16. The piglets of the control group were fed with basal formula feed only, while those of the test groups 2 to 16 were respectively fed with basal formula feed mixed with different additives, wherein the active ingredient of the additives was a hexahydro-β-acid compound or a prodrug of a hexahydro-β-acid compound provide herein, and the content thereof in the feed was 5 or 25 ppm as shown in Table 4.
The trial lasted for 14 days. During the trial, each test group was not fed with other antioxidants or growth enhancers. On the 14th day, each test group was fed with no feed but water for 12 hours, and the piglets of each replication as one unit were weighed to calculate the average daily feed intake (ADFI, g/d per piglet), the average daily weight gain (ADG, g/d per piglet), and the feed conversion ratio (FCR). Average daily feed intake=(Total weight of provided feed−Weight of residual feed)/(Days of the trial×Number of piglets in each replicate) Average daily weight gain=(final average body weight−initial average body weight)/Days of the trial Feed conversion ratio=average daily feed intake/average daily weight gain

Where [3] appears, read: 1% Premix of an ingredient (corncob meal), Day 5.
The mark [4] stands for this setting: 1% Premix of an ingredient (corncob meal), Day 10.

Structures are written as SMILES.

Turning to `CC(=O)OC1=C(CCC(C)C)C(=O)C(CCC(C)C)(CCC(C)C)C(O)=C1C(=O)C(C)C` [hexahydro-colupulone mono-acetate, Hexahydro-Colupulone Mono-Acetate], the “ADFI (average daily feed intake)” value was 49.13 g/d per broiler in the series on yellow broilers (2 ppm in feed), 50.06 g/d per broiler in the series with yellow broilers (20 ppm in feed), 860 g/d per piglet in series [2] (5 ppm in feed) and 960 g/d per piglet in series [2] (25 ppm in feed). For the same compound, the “ADG (average daily weight gain)” value in the series with yellow broilers (2 ppm in feed) came to 25.67 g/d per broiler; with yellow broilers (20 ppm in feed), 27.36 g/d per broiler; in series [2] (5 ppm in feed), 368 g/d per piglet; in series [2] (25 ppm in feed), 435 g/d per piglet. In addition, the “FCR (feed conversion ratio)” value with yellow broilers (2 ppm in feed) is 2.02; in the series on yellow broilers (20 ppm in feed), 1.95; in series [2] (5 ppm in feed), 2.340; in series [2] (25 ppm in feed), 2.208. The “effects on the production performance of broilers compared with hexahydro-colupulone (in words)” value in the series with yellow broilers was “equivalent”. Also, the “Residual amount of active ingredient” value in series [1] (setting [3]) was 99.40%; in series [1] (setting [4]) it was 98.68%; in series [1] (Ingredient, Day 5), 99.69%; in series [1] (Ingredient, Day 10), 99.44%.
Regarding `CCCC(=O)OC1=C(CCC(C)C)C(=O)C(CCC(C)C)(CCC(C)C)C(O)=C1C(=O)C(C)C` [hexahydro-colupulone mono-butyrate], the “ADFI (average daily feed intake)” value in the series on yellow broilers (2 ppm in feed) came out at 48.32 g/d per broiler; with yellow broilers (20 ppm in feed), 49.95 g/d per broiler; in series [2] (5 ppm in feed) it was 991 g/d per piglet; in series [2] (25 ppm in feed), 973 g/d per piglet. For the same compound, the “ADG (average daily weight gain)” value in the series with yellow broilers (2 ppm in feed) amounted to 24.65 g/d per broiler; in the series on yellow broilers (20 ppm in feed), 25.88 g/d per broiler; in series [2] (5 ppm in feed), 447 g/d per piglet; in series [2] (25 ppm in feed), 441 g/d per piglet. Further, the “FCR (feed conversion ratio)” value in the series with yellow broilers (2 ppm in feed) was 1.96; with yellow broilers (20 ppm in feed), 1.93; in series [2] (5 ppm in feed), 2.217; in series [2] (25 ppm in feed), 2.205. Besides, the “effects on the production performance of broilers compared with hexahydro-colupulone (in words)” value in the series with yellow broilers is “equivalent”. For the same compound, the “Residual amount of active ingredient” value is on record as 98.21% in series [1] (setting [3]); 97.57% in series [1] (setting [4]); 99.76% in series [1] (Ingredient, Day 5); 99.64% in series [1] (Ingredient, Day 10).
For the compound `CC(C)CCC1=C(O)C(C(=O)C(C)C)=C(O)C(CCC(C)C)(CCC(C)C)C1=O` [hexahydro-colupulone, reference compound], the “ADFI (average daily feed intake)” value is 49.68 g/d per broiler in the series with yellow broilers (20 ppm in feed) and 894 g/d per piglet in series [2] (25 ppm in feed). In addition, the “ADG (average daily weight gain)” value is 25.19 g/d per broiler in the series with yellow broilers (20 ppm in feed) and 403 g/d per piglet in series [2] (25 ppm in feed). For the same compound, the “FCR (feed conversion ratio)” value is 1.97 in the series with yellow broilers (20 ppm in feed) and 2.218 in series [2] (25 ppm in feed). The “Residual amount of active ingredient” value in series [1] (setting [3]) stood at 97.02%; in series [1] (setting [4]), 93.56%; in series [1] (Ingredient, Day 5), 99.76%; in series [1] (Ingredient, Day 10), 99.10%. Besides, the “change of active ingredient” value in series [1] (active ingredient of 1% premix, 10-day testing period) is reported as “more than 5%”.
